A word on the inhibition: it is how much of the control response was suppressed. Broadly, the IC50 is the concentration that inhibits the measured activity by half.

The target in the assay is T1, Human TRPV3 (Homo sapiens, UniProt Q8NET8).
T1 construct: expressed in transfected cells; host or cells: CHO cells
T1 sequence (Q8NET8 1-790): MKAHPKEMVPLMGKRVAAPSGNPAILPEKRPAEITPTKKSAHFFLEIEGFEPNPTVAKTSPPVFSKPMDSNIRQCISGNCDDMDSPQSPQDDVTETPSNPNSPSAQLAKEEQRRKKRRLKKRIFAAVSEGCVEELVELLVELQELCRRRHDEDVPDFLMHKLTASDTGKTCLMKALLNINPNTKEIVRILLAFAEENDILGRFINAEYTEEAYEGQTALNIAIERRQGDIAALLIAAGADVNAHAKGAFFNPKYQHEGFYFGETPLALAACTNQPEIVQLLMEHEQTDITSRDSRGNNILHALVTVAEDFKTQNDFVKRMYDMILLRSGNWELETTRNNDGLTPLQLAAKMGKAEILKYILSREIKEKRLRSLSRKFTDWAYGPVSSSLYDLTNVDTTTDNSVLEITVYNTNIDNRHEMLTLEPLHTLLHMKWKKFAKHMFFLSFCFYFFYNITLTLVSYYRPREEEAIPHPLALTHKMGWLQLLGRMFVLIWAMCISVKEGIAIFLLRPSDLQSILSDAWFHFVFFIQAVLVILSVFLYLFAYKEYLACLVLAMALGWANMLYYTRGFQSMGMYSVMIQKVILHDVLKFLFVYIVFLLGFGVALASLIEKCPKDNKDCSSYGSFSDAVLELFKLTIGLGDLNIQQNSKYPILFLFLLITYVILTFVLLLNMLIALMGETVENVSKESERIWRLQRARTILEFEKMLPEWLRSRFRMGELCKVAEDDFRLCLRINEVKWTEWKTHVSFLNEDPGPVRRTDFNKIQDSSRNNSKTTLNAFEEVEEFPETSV
Put plainly: 45Calcium uptake assay: inhibition of 2-APB induced cellular uptake of radioactive calcium in human TRPV3 expressing CHO cells. The class given is cell-based. The note with it: 2-APB 500 μM; for inhibition at 1 µM: 1.0 μM test compound, read-out: Percentage inhibition at 1.0 μM; for inhibition at 10 µM: 10.0 μM test compound, read-out: Percentage inhibition at 10.0 μM. The source says: The illustrative examples of the present invention are screened for TRPV3 activity according to a modified procedure described in (a) Tóth, A. et al. Life Sciences 2003, 73, 487-498. (b) McNamara C, R. et al. Proc. Natl. Acad. Sci. U.S.A., 2007, 104, 13525-13530. The screening of the compounds can be carried out by other methods and procedures known to persons skilled in the art.
Screening for TRPV3 Antagonist Using the ^45Calcium Uptake Assay
The inhibition of TRPV3 receptor activation was followed as inhibition of 2-aminoethxydiphenylborate (2-APB) induced cellular uptake of radioactive calcium. Test compounds were dissolved in dimethyl sulfoxide (DMSO) to prepare 20 mM stock solution and then diluted using plain medium with DMEM/F-12 containing 1.8 mM CaCl2 to get desired concentration. Final concentration of DMSO in the reaction was 0.5% (v/v). Human TRPV3 expressing CHO cells were grown in DMEM/F-12 medium with 10% FBS, 1% penicillin-streptomycin solution, 400 μg/mL of G-418. Cells were seeded 24 h prior to the assay in 96 well plates so as to get ˜50,000 cells per well on the day of experiment. Cells were treated with test compounds for 10 minutes followed by addition of 2-APB at a final concentration of 500 μM and 5 μCi/mL ^45Ca^+2 for 4 minutes. Cells were washed and lysed using buffer containing 1% Triton X-100, 0.1% deoxycholate and 0.1% SDS. Radioactivity in the lysate was measured in Packardt Top count after addition of liquid scintillant. Concentration response curves were plotted as a % of maximal response obtained in the absence of test antagonist. IC50 value was calculated from concentration response curve by nonlinear regression analysis using GraphPad PRISM software.
Percentage inhibition at concentrations of 1.0 μM and 10.0 μM are given in the table along with IC50 (nM) values for selected examples.

With `COc1cccc(/C=C/c2oc3ccc(F)cc3c(=O)c2-c2ccc(C#N)cc2)c1OCC1CC1` [Example 15, 4-{2-[(E)-2-(2-Cyclopropylmethoxy-3-methoxyphenyl)-1-ethenyl]-6-fluoro-4-oxo-4H-3-chromenyl}benzonitrile], the inhibition at 1 µM turned out to be 79.3%, the inhibition at 10 µM was 94.1% and the 50% inhibitory concentration (IC50) is 0.15 to 1 µM.
In the same order, the values of `COc1cccc(/C=C/c2oc3cc(F)ccc3c(=O)c2-c2ccc(C#N)cc2)c1OCC(C)C` [Example 13, 4-{7-Fluoro-2-[(E)-2-(2-isobutoxy-3-methoxyphenyl)-1-ethenyl]-4-oxo-4H-3-chromenyl}benzonitrile] are 92.9%, 96.7% and 0.05 to 0.15 µM.
The corresponding values for `COc1cccc(/C=C/c2oc3ccc(F)cc3c(=O)c2-c2ccc(C#N)cc2)c1OCC1CCC1` [Example 17, 4-{2-[(E)-2-(2-Cyclobutylmethoxy-3-methoxyphenyl)-1-ethenyl]-6-fluoro-4-oxo-4H-3-chromenyl}benzonitrile] are 78.2%, 89.8% and 0.15 to 1 µM.
The corresponding values for `COc1cccc(/C=C/c2oc3cc(F)ccc3c(=O)c2-c2ccc(C#N)cc2)c1OCC(C)(C)C` [Example 12, 4-{7-Fluoro-2-[(E)-2-(3-methoxy-2-neopentyloxyphenyl)-1-ethenyl]-4-oxo-4H-3-chromenyl}benzonitrile] are 82.2%, 91.2% and < 0.05 µM.
Consider `COc1cccc(/C=C/c2oc3ccccc3c(=O)c2-c2ccc(C#N)cc2)c1OCCC(F)(F)F` [Example 9, 4-(2-{(E)-2-[3-Methoxy-2-(3,3,3-trifluoropropoxy)phenyl]-1-ethenyl}-4-oxo-4H-3-chromenyl}benzonitrile], for which the inhibition at 1 µM came to 94.5%, the inhibition at 10 µM was 98% and the half-maximal inhibitory concentration (IC50) is 0.05 to 0.15 µM.
The corresponding values for `COc1cccc(/C=C/c2oc3cc(F)ccc3c(=O)c2-c2ccc(C#N)cc2)c1OCCC(F)(F)F` [Example 14, 4-(7-Fluoro-2-{(E)-2-[3-methoxy-2-(3,3,3-trifluoropropoxy)phenyl]-1-ethenyl}-4-oxo-4H-3-chromenyl)benzonitrile] are 96%, 98.7% and 0.15 to 1 µM.
For the compound `COc1cccc(/C=C/c2oc3ccccc3c(=O)c2-c2ccc(OC(F)(F)F)cc2)c1OCC1CC1` [Example 1, 2-[(E)-2-(2-Cyclopropylmethoxy-3-methoxyphenyl)-1-ethenyl]-3-(4-trifluoromethoxy-phenyl)-4H-4-chromenone], the inhibition at 1 µM was determined as 36.7% and the inhibition at 10 µM was found to be 62.2%.
As to `COc1cccc(/C=C/c2oc3ccccc3c(=O)c2-c2ccc(C#N)cc2)c1O` [Example 6, 4-{2-[(E)-2-(2-Hydroxy-3-methoxyphenyl)-1-ethenyl]-4-oxo-4H-3-chromenyl}-benzonitrile], the inhibition at 1 µM was 32.1% and the inhibition at 10 µM is 83.9%.
`COc1cccc(/C=C/c2oc3ccc(Cl)cc3c(=O)c2-c2ccc(C#N)cc2)c1OCC1CC1` [Example 21, 4-{6-Chloro-2-[(E)-2-(2-cyclopropylmethoxy-3-methoxyphenyl)-1-ethenyl]-4-oxo-4H-3-chromenyl}benzonitrile]: the inhibition at 1 µM was 76.4%, the inhibition at 10 µM amounted to 87.7% and the half-maximal inhibitory concentration (IC50) is 0.15 to 1 µM.
In the same order, the values of `COc1cccc(/C=C/c2oc3cc(F)ccc3c(=O)c2-c2ccc(C#N)cc2)c1OC1CCCC1` [Example 11, 4-{2-[(E)-2-(2-Cyclopentyloxy-3-methoxyphenyl)-1-ethenyl]-7-fluoro-4-oxo-4H-3-chromenyl}benzonitrile] are 84.6%, 92.6% and 0.05 to 0.15 µM.
The corresponding values for `COc1cccc(/C=C/c2oc3cc(F)c(F)cc3c(=O)c2-c2ccc(C#N)cc2)c1OC1CCCC1` [Example 23, 4-{2-[(E)-2-[2-Cyclopentyloxy-3-methoxyphenyl)-1-ethenyl]-6,7-difluoro-4-oxo-4H-3-chromenyl}benzonitrile] are 75.8%, 86.7% and < 0.05 µM.
In the same order, the values of `COc1cccc(/C=C/c2oc3ccccc3c(=O)c2-c2ccc(C(F)(F)F)cc2)c1OCC1CC1` [Example 2, 2-[(E)-2-(2-Cyclopropylmethoxy-3-methoxyphenyl)-1-ethenyl]-3-(4-trifluoromethyl-phenyl)-4H-4-chromenone] are 63.1%, 75.4% and 0.15 to 1 µM.
As for `COc1cccc(/C=C/c2oc3ccc(F)cc3c(=O)c2-c2ccc(C#N)cc2)c1OCC(C)C` [Example 19, 4-{6-Fluoro-2-[(E)-2-(2-isobutoxy-3-methoxyphenyl)-1-ethenyl]-4-oxo-4H-3-chromenyl}benzonitrile], the inhibition at 1 µM was 70.2%, the inhibition at 10 µM turned out to be 87.8% and the IC50 is < 0.05 µM.
Regarding `COc1cccc(/C=C/c2oc3c(F)cc(F)cc3c(=O)c2-c2ccc(C#N)cc2)c1OCC1CC1` [Example 22, 4-{2-[(E)-2-(2-Cyclopropylmethoxy-3-methoxyphenyl)-1-ethenyl]-6,8-difluoro-4-oxo-4H-3-chromenyl}benzonitrile], the inhibition at 1 µM came to 40% and the inhibition at 10 µM amounted to 73%.
In the same order, the values of `COc1cccc(/C=C/c2oc3ccc(F)cc3c(=O)c2-c2ccc(C#N)cc2)c1OCCC(C)C` [Example 18, 4-{6-Fluoro-2-[(E)-2-(2-isopentyloxy-3-methoxyphenyl)-1-ethenyl]-4-oxo-4H-3-chromenyl}benzonitrile] are 55.2% and 71.7%.
Regarding `COc1cccc(/C=C/c2oc3ccccc3c(=O)c2-c2ccc(C#N)cc2)c1OCC(C)(C)C` [Example 7, 4-{2-[(E)-2-[2-(2,2-Dimethylpropoxy)-3-methoxyphenyl]-1-ethenyl]-4-oxo-4H-3-chromenyl}benzonitrile], the inhibition at 1 µM turned out to be 89.8%, the inhibition at 10 µM amounted to 93.2% and the IC50 was in the range of 0.05 to 0.15 µM.
In the same order, the values of `COc1cccc(/C=C/c2oc3ccc(F)cc3c(=O)c2-c2ccc(C#N)cc2)c1OCC(C)(C)C` [Example 20] are 74.3%, 78.5% and < 0.05 µM.
Consider `COc1cccc(/C=C/c2oc3ccccc3c(=O)c2-c2ccc(C#N)cc2)c1OCC1CC1` [Example 3, 4-{2-[(E)-2-(2-Cyclopropylmethoxy-3-methoxyphenyl)-1-ethenyl]-4-oxo-4H-3-chromenyl}benzonitrile], for which the inhibition at 1 µM came out at 90.4%, the inhibition at 10 µM is 94.5% and the IC50 lay within 0.15 to 1 µM.
On to `COc1cccc(/C=C/c2oc3cc(F)ccc3c(=O)c2-c2ccc(C#N)cc2)c1OCC1CC1` [Example 10, 4-{2-[(E)-2-(2-Cyclopropylmethoxy-3-methoxyphenyl)-1-ethenyl]-7-fluoro-4-oxo-4H-3-chromenyl}benzonitrile], for which the inhibition at 1 µM came to 87.3%, the inhibition at 10 µM turned out to be 95.6% and the IC50 lay within 0.15 to 1 µM.
Turning to `COc1cccc(/C=C/c2oc3ccc(F)cc3c(=O)c2-c2ccc(C#N)cc2)c1OC1CCCC1` [Example 16, 4-{2-[(E)-2-(2-Cyclopentyloxy-3-methoxyphenyl)-1-ethenyl]-6-fluoro-4-oxo-4H-3-chromenyl}benzonitrile], the inhibition at 1 µM was 59.4% and the inhibition at 10 µM was found to be 74.4%.

These data come from patent publication US20110237659A1, “CHROMENONE DERIVATIVES AS TRPV3 ANTAGONISTS” (GLENMARK PHARMACEUTICALS S.A., priority 2008, published 2011).
